Reference: patent US10266535B2, “Inhibitor of FLT3 kinase and use thereof” (HEFEI INSTITUTES OF PHYSICAL SCIENCE, CHINESE ACADEMY OF …, priority 2015, dated 2019)
Structures can show the parent of a compound that is named as a salt. Where two headings read alike, the source gives them in different places.

How the values were obtained:
[1] = system: U937 (expressing wild-type FLT3 gene); assay: Cell proliferation, Cell Titer-Glo, U937; type: cell-based, human; conditions: Homo sapiens, U-937, 72 h
Summary of the method: (§1)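 Read-out: luminescence from ATP in live cells (CellTiter-Glo), taken as viable cell number. Cell lines were built in-house.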

[2] = system: TEL-BaF3-BLK (stably expressing BLK kinase); assay: Cell proliferation, Cell Titer-Glo, TEL-BaF3-BLK; type: cell-based; conditions: Mus musculus; incubated for 72 hours
Summary of the method: (§2)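 Chemiluminescent ATP detection (CellTiter-Glo) gave the number of viable cells, used as the measure of proliferation in these laboratory-made BaF3 lines.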

[3] = system: TEL-BaF3-EGFR (stably expressing EGFR kinase); assay: Cell proliferation, Cell Titer-Glo, TEL-BaF3-EGFR; type: cell-based; conditions: Mus musculus; incubated for 72 hours
Experimental: (§3) The above cell lines were constructed by our laboratory.
(§4) The number of viable cells was determined by quantification of ATP in living cells using the Cell Titer-Glo® (Promega, USA) chemiluminescence cell viability assay kit.

[4] = system: TEL-BaF3-FLT3/ITD (stably expressing FLT3/ITD mutant activated kinase); assay: Cell proliferation, Cell Titer-Glo, TEL-BaF3-FLT3/ITD; type: cell-based, mouse; conditions: Mus musculus, 72 h
Summary of the method: as §2

[5] = system: TPR-MET-BaF3 (stably expressing MET kinase); assay: Cell proliferation, Cell Titer-Glo, TPR-MET-BaF3; type: cell-based; conditions: Mus musculus; incubated for 72 hours
Experimental: as §3, §4

[6] = system: TEL-BaF3-FLT3-D835Y (stably expressing FLT3 D835Y mutant activated kinase); assay: Cell proliferation, Cell Titer-Glo, TEL-BaF3-FLT3-D835Y; type: cell-based; conditions: Mus musculus
Experimental: as §3, §4

[7] = system: BaF3-FLT3-ITD-F691L (stably expressing FLT3/ITD F691L mutant activated kinase); assay: Cell proliferation, Cell Titer-Glo, BaF3-FLT3-ITD-F691L; type: cell-based; conditions: Mus musculus
Experimental: as §3, §4

[8] = system: MOLM-13 (expressing FLT3/ITD mutant gene and wild-type FLT3 gene); assay: Cell proliferation, Cell Titer-Glo, MOLM-13; type: cell-based; conditions: Homo sapiens
Summary of the method: as §1

[9] = system: TEL-BaF3-BMX (stably expressing BMX kinase); assay: Cell proliferation, Cell Titer-Glo, TEL-BaF3-BMX; type: cell-based; conditions: Mus musculus; incubated for 72 hours
Summary of the method: as §2

[10] = system: MOLM-14 (expressing FLT3/ITD mutant gene and wild-type FLT3 gene); assay: Cell proliferation, Cell Titer-Glo, MOLM-14; type: cell-based; conditions: Homo sapiens
Experimental: as §3, §4

[11] = system: MV4-11 (expressing FLT3/ITD mutant gene); assay: Cell proliferation, Cell Titer-Glo, MV4-11; type: cell-based; conditions: Homo sapiens
Summary of the method: as §1

[12] = system: TEL-cKIT-BaF3 (stably expressing cKIT kinase); assay: Cell proliferation, Cell Titer-Glo, TEL-cKIT-BaF3; type: cell-based; conditions: Mus musculus; incubated for 72 hours
Summary of the method: as §2

[13] = system: pro-B cell BaF3; assay: Cell proliferation, Cell Titer-Glo, BaF3; type: cell-based; conditions: Mus musculus, incubated for 72 hours
Summary of the method: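 Cells from the in-house-constructed BaF3 lines were grown with compound. Viability was then scored by chemiluminescent detection of cellular ATP.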

[14] = system: TEL-JAK1-BaF3 (stably expressing JAK1 kinase); assay: Cell proliferation, Cell Titer-Glo, TEL-JAK1-BaF3; type: cell-based; conditions: Mus musculus; incubated for 72 hours
Experimental: as §3, §4

[15] = system: BaF3-FLT3-ITD-D835Y (stably expressing FLT3/ITD D835Y mutant activated kinase); assay: Cell proliferation, Cell Titer-Glo, BaF3-FLT3-ITD-D835Y; type: cell-based; conditions: Mus musculus
Experimental: as §3, §4

[16] = molecular target: BTK protein kinase (Homo sapiens (Human), UniProt Q06187); assay: In vitro inhibition activity (enzymatic activity), ADP-Glo, BTK; type: biochemical; conditions: ATP 10 μM
Chain of BTK protein kinase (Q06187 whole entry): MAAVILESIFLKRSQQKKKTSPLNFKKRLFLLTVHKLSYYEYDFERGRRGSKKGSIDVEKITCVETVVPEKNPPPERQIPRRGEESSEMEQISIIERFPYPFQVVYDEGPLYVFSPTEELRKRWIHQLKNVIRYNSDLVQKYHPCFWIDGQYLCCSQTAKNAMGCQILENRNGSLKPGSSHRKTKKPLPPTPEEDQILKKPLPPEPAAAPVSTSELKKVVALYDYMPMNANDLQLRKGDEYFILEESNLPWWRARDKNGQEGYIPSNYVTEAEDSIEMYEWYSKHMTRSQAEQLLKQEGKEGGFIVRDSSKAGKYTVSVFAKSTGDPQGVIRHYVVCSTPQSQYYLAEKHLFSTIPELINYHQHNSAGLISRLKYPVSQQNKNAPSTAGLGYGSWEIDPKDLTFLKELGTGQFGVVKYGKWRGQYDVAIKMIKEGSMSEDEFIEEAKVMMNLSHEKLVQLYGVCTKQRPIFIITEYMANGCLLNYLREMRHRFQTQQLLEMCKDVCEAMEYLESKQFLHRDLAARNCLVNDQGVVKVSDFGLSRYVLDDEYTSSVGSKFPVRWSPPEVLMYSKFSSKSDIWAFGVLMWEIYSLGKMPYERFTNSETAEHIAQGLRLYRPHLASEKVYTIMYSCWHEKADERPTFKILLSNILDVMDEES

[17] = system: TEL-FLT3-BaF3 (stably expressing FLT3 kinase); assay: Cell proliferation, Cell Titer-Glo, TEL-FLT3-BaF3; type: cell-based; conditions: Mus musculus
Experimental: as §3, §4

[18] = system: MOLM-14 cells; assay: Nude mouse subcutaneous tumor model with MOLM-14 cells; type: in vivo; conditions: oral gavage
Experimental: More than 30 mice (5-week-old) (Balb/c-nu female mice, purchased from Shanghai Snake Experimental Animal Co., Ltd.) were inoculated subcutaneously with MOLM-14 cells in 1×10^7 cells/mouse, the changes in body weight and tumor volume were recorded daily (tumor volume=Tumor length×tumor width^2/2).

[19] = system: Signaling pathways of FLT3 in MV4-11 and MOLM-14 cell lines; assay: Effects on upstream and downstream signaling pathways of FLT3 in cells; type: cell-based, human
[20] = system: OCI-AML-3 (expressing FLT3 A680V mutant gene); assay: Cell proliferation, Cell Titer-Glo, OCI-AML3; type: cell-based; conditions: Homo sapiens, incubated for 72 hours
Summary of the method: as §1

[21] = incubated for 72 hours, read-out: U937 IC50
[22] = incubated for 72 hours, read-out: TEL-BaF3-FLT3/ITD IC50
[23] = incubated for 72 hours, read-out: TEL-BaF3-FLT3-D835Y IC50
[24] = incubated for 72 hours, read-out: BaF3-FLT3-ITD-F691L IC50
[25] = MOLM-13, incubated for 72 hours, read-out: MOLM-13 IC50
[26] = MOLM-14, incubated for 72 hours, read-out: MOLM-14 IC50
[27] = MV4-11, incubated for 72 hours, read-out: MV4-11 IC50
[28] = incubated for 72 hours, read-out: BaF3-FLT3-ITD-D835Y IC50
[29] = incubated for 72 hours, read-out: TEL-FLT3-BaF3 IC50

Row | Structure (SMILES) | IC50 [1, 21] | IC50 [2] | IC50 [3] | IC50 [4, 22] | IC50 [5] | IC50 [6, 23] | IC50 [7, 24] | IC50 [8, 25] | IC50 [9] | IC50 [10, 26] | IC50 [11, 27] | IC50 [12] | IC50 [13] | IC50 [14] | IC50 [15, 28] | IC50 [16] | also measured
1 | Nc1ncnc2c1c(-c1ccc(Oc3ccccc3)cc1)nn2[C@@H]1CCCN(C(=O)[C@@H](N)Cc2ccc(O)cc2)C1 [Compound 11, (S)-2-amino-1-((R)-3-(4-amino-(4-phenoxyphenyl)-1H-pyrazolo[3,4-d]pyrimidin-1-yl)piperidin-1-yl)-3-(4-hydroxyphenyl)propan-1-one] | 3.4 µM | 0.09 µM | 2.2 µM | 0.048 µM | 1.4 µM | 0.02 µM | 0.26 µM | 0.012 µM | 0.44 µM | 0.046 µM | 0.022 µM | 0.83 µM | 0.96 µM | 0.34 µM | 0.28 µM |  | 
2 | NC(=O)C(=O)N1CCC[C@@H](n2nc(-c3ccc(Oc4ccccc4)cc3)c3c(N)ncnc32)C1 [Compound 5, (R)-2-(3-(4-amino-(4-phenoxyphenyl)-1H-pyrazolo[3,4-d]pyrimidin-1-yl)piperidin-1-yl)-2-oxamide] | 6.4 µM | 0.97 µM | > 10 µM | 0.51 µM | 5.7 µM | 0.034 µM | 0.37 µM | 0.085 µM | 0.2 µM | 0.21 µM | 0.12 µM | 2.2 µM | > 10 µM | 4 µM | 0.32 µM | 0.04 µM | 
3 | CC(C)[C@@H](N)C(=O)NC1CCC(n2nc(-c3ccc(Oc4ccccc4)cc3)c3c(N)ncnc32)CC1 (stereo partly drawn) [Compound 86, (R)-2-amino-N-(4-(4-amino-(4-phenoxyphenyl)-1H-pyrazolo[3,4-d]pyrimidin-1-yl)cyclohexyl)-3-methylbutanamide hydrochloride] | 1.4 µM | 0.001 µM | 1.3 µM |  | 3.3 µM |  | 0.15 µM | 0.001 µM | < 0.0003 µM | 0.005 µM | 0.02 µM | 0.27 µM |  |  | 0.006 µM |  | IC50 [17, 29]: 0.004 µM
4 | Nc1ncnc2c1c(-c1ccc(Oc3ccccc3)cc1)nn2[C@@H]1CCCN(C(=O)[C@H](N)Cc2c[nH]cn2)C1 [Compound 7, (R)-2-amino-1-((R)-3-(4-amino-(4-phenoxyphenyl)-1H-pyrazolo[3,4-d]pyrimidin-1-yl)piperidin-1-yl)-3-(1H-imidazol-4-yl)propan-1-one] | 0.54 µM | 0.051 µM | 1 µM | 0.009 µM | 0.53 µM | 0.3 µM | 0.25 µM | 0.0012 µM | 0.33 µM | 0.023 µM | 0.01 µM | 0.35 µM | 0.44 µM | 0.37 µM | 0.11 µM | 0.027 µM | 
5 | CC(C)C[C@@H](N)C(=O)NC1CCC(n2nc(-c3ccc(Oc4ccccc4)cc3)c3c(N)ncnc32)CC1.Cl (stereo partly drawn) [Compound 77, (R)-2-amino-N-(4-(4-amino-3-(4-phenoxyphenyl)-1H-pyrazolo[3,4-d]pyrimidin-1-yl)cyclohexyl)-4-methylpentanamide hydrochloride] |  | 0.0026 µM |  | < 0.0003 µM |  |  |  |  | 0.052 µM |  |  |  | 2.2 µM |  |  | 0.128 µM | IC50 ([1]; read-out: U937 IC50 [μM], incubated for 72 hours): 3.4 µM; IC50 ([6]; 72 h, read-out: TEL-BaF3-FLT3-D835Y IC50 [μM]): 0.021 µM; IC50 ([7]; 72 h, read-out: BaF3-FLT3-ITD-F691L IC50 [μM]): 0.067 µM; tumor volume growth of the mice ([18]; 25 mg/kg/day): significantly slowed down; growth of the tumors of the mice ([18]; 50.0 mg/kg/day): almost no growth; tumor growth of the mice ([18]; 12.5-50 mg/kg, 2 to 3 weeks): significantly inhibited; IC50 ([8]; MOLM-13, 72 h, read-out: MOLM-13 IC50 [μM]): 0.0027 µM; IC50 ([10]; MOLM-14, 72 h, read-out: MOLM-14 IC50 [μM]): 0.0084 µM; IC50 ([11]; MV4-11, 72 h, read-out: MV4-11 IC50 [μM]): 0.0016 µM; efficacy compared with Control Compound AC220 ([19]; AC220 at 0.1 μM): better efficacy; C-Myc (degradation; for AC220 phosphorylation) ([19]; treated for 4 hours): significant effects on the degradation; phosphorylation of STAT5 ([19]; treated for 4 hours): very strong inhibitory effects; phosphorylation of protein kinase FLT3 ([19]; treated for 4 hours): strongly inhibited; IC50 ([15]; 72 h, read-out: BaF3-FLT3-ITD-D835Y IC50 [μM]): 0.073 µM; IC50 ([17]; 72 h, read-out: TEL-FLT3-BaF3 IC50 [μM]): 0.0081 µM
6 | Nc1ncnc2c1c(-c1ccc(Oc3ccccc3)cc1)nn2[C@@H]1CCCN(C(=O)N2CCNCC2)C1 [Compound 14, (R)-(3-(4-amino-(4-phenoxyphenyl)-1H-pyrazolo[3,4-d]pyrimidin-1-yl)piperidin-1-yl)(piperazin-1-yl)methanone] | 4.14 µM | 1 µM | 1.6 µM | 0.088 µM | 3 µM | 0.24 µM | 0.37 µM | 0.06 µM | 0.43 µM | 0.12 µM | 0.049 µM | 4.9 µM | 9.8 µM | 7.7 µM | 0.25 µM | 0.063 µM | 
7 | CN(C)CC(=O)NC1CCC(n2nc(-c3ccc(Oc4ccccc4)cc3)c3c(N)ncnc32)CC1 (stereo not shown) [Compound 76, N-(4-(4-amino-3-(4-phenoxyphenyl)-1H-pyrazolo[3,4-d]pyrimidin-1-yl)cyclohexyl)-2-(dimethylamino)acetamide] | > 10 µM | 0.03 µM |  |  |  | 0.023 µM | 0.18 µM |  | 0.12 µM | 0.036 µM | 0.027 µM | 0.43 µM | 4.2 µM |  | 0.13 µM | 0.388 µM | IC50 ([4]; read-out: TEL-BaF3-FLT3/ITD IC50 [μM]): 0.0067 µM; IC50 [17, 29]: 0.042 µM
8 | CS(=O)(=O)N1CCC[C@@H](n2nc(-c3ccc(Oc4ccccc4)cc3)c3c(N)ncnc32)C1 [Compound 30, (R)-1-(1-(methylsulfonyl)piperidin-3-yl)-3-(4-phenoxyphenyl)-1H-pyrazolo[3,4-d]pyrimidin-4-amine] | > 10 µM | 3.5 µM |  | 0.048 µM | 9.27 µM | 0.65 µM | 5.3 µM | 0.13 µM | 0.14 µM | 0.26 µM | 0.17 µM | 4.35 µM | > 10 µM |  | 2.5 µM | 1.83 µM | IC50 [20]: > 10 µM
9 | CC(C)C[C@@H](N)C(=O)N1CCC[C@@H](n2nc(-c3ccc(Oc4ccccc4)cc3)c3c(N)ncnc32)C1 [Compound 27, (R)-2-amino-1-((R)-3-(4-amino-(4-phenoxyphenyl)-1H-pyrazolo[3,4-d]pyrimidin-1-yl)piperidin-1-yl)-4-methylpentan-1-one] | 4.1 µM | 0.21 µM | 0.99 µM | 0.005 µM | 1.5 µM | 0.018 µM | 0.28 µM | 0.014 µM | 0.34 µM | 0.023 µM | 0.032 µM | 1.6 µM | 1.3 µM | 2.2 µM | 0.2 µM | 0.688 µM | 
